Where “and” joins values, the source holds several entries; their conditions need not be identical. Identical values can stand only once.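 Briefly, cells in 96-well plates were exposed to five compound concentrations for 48 h, and endpoints were estimated by linear interpolation. GI50 marks 50% less growth. TGI: total growth inhibition.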
Legend:
Experiment in all cases: DTP human tumour cell line panel, 48 h
EKVX NSCLC = system: EKVX NSCLC
HOP-62 NSCLC = system: HOP-62 NSCLC
HS 578T breast = system: HS 578T breast
SF-539 CNS = system: SF-539 CNS
UACC-257 melanoma = system: UACC-257 melanoma
MOLT-4 leukemia = system: MOLT-4 leukemia
SK-OV-3 ovarian = system: SK-OV-3 ovarian
OVCAR-8 ovarian = system: OVCAR-8 ovarian

CCc1c2c(nc3cc4c(cc13)OCO4)-c1cc3c(c(=O)n1C2)COC(=O)[C@]3(O)CC
GI50 (EKVX NSCLC): 4.31 µM and 1.8 µM
TGI (EKVX NSCLC): > 100 µM
TGI (HOP-62 NSCLC): > 100 µM
TGI (HS 578T breast): > 100 µM
GI50 (SF-539 CNS): < 0.001 µM
TGI (SF-539 CNS): 0.0505 µM
GI50 (UACC-257 melanoma): 0.135 µM and 0.194 µM
TGI (UACC-257 melanoma): 2.04 µM and 2.71 µM
GI50 (MOLT-4 leukemia): < 0.001 µM
TGI (MOLT-4 leukemia): 0.0106 µM and 0.0339 µM

CCOc1ccc(S(=O)(=O)/N=C2\C=C(SCC(=O)O)C(=O)c3ccccc32)cc1
GI50 (EKVX NSCLC): 3.29 µM
TGI (EKVX NSCLC): 11.3 µM
GI50 (HOP-62 NSCLC): 20.7 µM
TGI (HOP-62 NSCLC): 44.8 µM
GI50 (SK-OV-3 ovarian): 15.2 µM
TGI (SK-OV-3 ovarian): 29.7 µM
GI50 (OVCAR-8 ovarian): 2.82 µM
TGI (OVCAR-8 ovarian): 10.3 µM
GI50 (HS 578T breast): 2.6 µM
TGI (HS 578T breast): 6.79 µM
GI50 (SF-539 CNS): 2.49 µM
TGI (SF-539 CNS): 5.39 µM
GI50 (UACC-257 melanoma): 16.1 µM
TGI (UACC-257 melanoma): 39.3 µM
GI50 (MOLT-4 leukemia): 2.38 µM
TGI (MOLT-4 leukemia): 6.06 µM

Fc1cccc(COc2ccc(Nc3ncncc3C#Cc3ccccc3)cc2Cl)c1
GI50 (EKVX NSCLC): 8.26 µM
TGI (EKVX NSCLC): > 25 µM
GI50 (HOP-62 NSCLC): > 25 µM
TGI (HOP-62 NSCLC): > 25 µM
GI50 (SK-OV-3 ovarian): > 25 µM
TGI (SK-OV-3 ovarian): > 25 µM
GI50 (OVCAR-8 ovarian): > 25 µM
TGI (OVCAR-8 ovarian): > 25 µM
GI50 (HS 578T breast): > 25 µM
TGI (HS 578T breast): > 25 µM
GI50 (SF-539 CNS): > 25 µM
TGI (SF-539 CNS): > 25 µM
GI50 (UACC-257 melanoma): > 25 µM
TGI (UACC-257 melanoma): > 25 µM
GI50 (MOLT-4 leukemia): > 25 µM
TGI (MOLT-4 leukemia): > 25 µM

NC(CO)Cc1cnc[nH]1 (centres undefined)
GI50 (EKVX NSCLC): > 100 µM
TGI (EKVX NSCLC): > 100 µM
GI50 (HOP-62 NSCLC): > 100 µM
TGI (HOP-62 NSCLC): > 100 µM
GI50 (SK-OV-3 ovarian): > 100 µM
TGI (SK-OV-3 ovarian): > 100 µM
GI50 (OVCAR-8 ovarian): > 100 µM
TGI (OVCAR-8 ovarian): > 100 µM
GI50 (HS 578T breast): > 100 µM
TGI (HS 578T breast): > 100 µM
GI50 (SF-539 CNS): > 100 µM
TGI (SF-539 CNS): > 100 µM
TGI (UACC-257 melanoma): > 100 µM
GI50 (MOLT-4 leukemia): > 100 µM
TGI (MOLT-4 leukemia): > 100 µM

O=C(Nc1cccc(-n2ccc3c(NC(=O)c4ccccc4)nccc32)c1)c1cccc(C(F)(F)F)c1
GI50 (EKVX NSCLC): 0.0715 µM
TGI (EKVX NSCLC): > 100 µM
GI50 (HOP-62 NSCLC): 0.0543 µM
TGI (HOP-62 NSCLC): 16.5 µM
GI50 (SK-OV-3 ovarian): 0.0331 µM
TGI (SK-OV-3 ovarian): 15.1 µM
GI50 (OVCAR-8 ovarian): 0.036 µM
TGI (OVCAR-8 ovarian): 2.43 µM
GI50 (HS 578T breast): 0.0305 µM
TGI (HS 578T breast): 3.28 µM
GI50 (SF-539 CNS): 0.0314 µM
TGI (SF-539 CNS): 2.14 µM
GI50 (UACC-257 melanoma): 0.0804 µM
TGI (UACC-257 melanoma): 19.9 µM
GI50 (MOLT-4 leukemia): 0.168 µM
TGI (MOLT-4 leukemia): > 100 µM

N#CC(=C1SCS1)[N+](=O)[O-]
GI50 (EKVX NSCLC): 12.4 µM
TGI (EKVX NSCLC): 31.1 µM
GI50 (HOP-62 NSCLC): 4.9 µM
TGI (HOP-62 NSCLC): 21.1 µM
GI50 (SK-OV-3 ovarian): 5.35 µM
TGI (SK-OV-3 ovarian): 43.3 µM
GI50 (OVCAR-8 ovarian): 3.16 µM
TGI (OVCAR-8 ovarian): 13.8 µM
GI50 (HS 578T breast): 3.67 µM
TGI (HS 578T breast): 41.2 µM
GI50 (SF-539 CNS): 2.23 µM
TGI (SF-539 CNS): 12.7 µM
GI50 (UACC-257 melanoma): 1.09 µM
TGI (UACC-257 melanoma): 7.06 µM
GI50 (MOLT-4 leukemia): 0.639 µM
TGI (MOLT-4 leukemia): 6.5 µM

COC(=O)C1OC(O[C@H]2CCC3(C)C(CCC4(C)C3CC=C3C5CC(C)(C)CCC5(C(=O)O)CC[C@]34C)C2(C)C)C(O)C(OC2OC(CO)C(O)C(O)C2O)C1O (some centres undefined)
GI50 (EKVX NSCLC): 6.59 µM
TGI (EKVX NSCLC): 12.9 µM
GI50 (HOP-62 NSCLC): 6.21 µM
TGI (HOP-62 NSCLC): 11.6 µM
GI50 (OVCAR-8 ovarian): 9.96 µM
TGI (OVCAR-8 ovarian): 27.6 µM
GI50 (HS 578T breast): 8.77 µM
TGI (HS 578T breast): 21.6 µM
GI50 (UACC-257 melanoma): 6.89 µM
TGI (UACC-257 melanoma): 16.1 µM
GI50 (MOLT-4 leukemia): 2.17 µM
TGI (MOLT-4 leukemia): 13.4 µM

O=C(Nc1nc2ccccc2s1)OCC(F)(F)F
GI50 (HOP-62 NSCLC): > 100 µM
TGI (HOP-62 NSCLC): > 100 µM
GI50 (SK-OV-3 ovarian): > 100 µM
TGI (SK-OV-3 ovarian): > 100 µM
GI50 (OVCAR-8 ovarian): > 100 µM
TGI (OVCAR-8 ovarian): > 100 µM
GI50 (HS 578T breast): > 100 µM
TGI (HS 578T breast): > 100 µM
GI50 (SF-539 CNS): > 100 µM
TGI (SF-539 CNS): > 100 µM
GI50 (UACC-257 melanoma): > 100 µM
TGI (UACC-257 melanoma): > 100 µM
GI50 (MOLT-4 leukemia): > 100 µM
TGI (MOLT-4 leukemia): > 100 µM

CCCCCCCCCCCCCC(=S)NCCCC[C@H](NC(=O)OCc1ccccc1)C(=O)Nc1ccccc1
GI50 (HOP-62 NSCLC): 16 µM
TGI (HOP-62 NSCLC): > 100 µM
GI50 (SK-OV-3 ovarian): 21.7 µM
TGI (SK-OV-3 ovarian): > 100 µM
GI50 (OVCAR-8 ovarian): 4.35 µM
TGI (OVCAR-8 ovarian): > 100 µM
GI50 (HS 578T breast): 4.31 µM
TGI (HS 578T breast): > 100 µM
GI50 (SF-539 CNS): 10.7 µM
TGI (SF-539 CNS): > 100 µM
GI50 (UACC-257 melanoma): 5.38 µM
TGI (UACC-257 melanoma): > 100 µM
GI50 (MOLT-4 leukemia): 3.91 µM
TGI (MOLT-4 leukemia): > 100 µM

CC(=O)c1ccc(Nc2cc(-c3ccccc3)nc3c(O)cccc23)cc1
GI50 (EKVX NSCLC): 28.7 µM
TGI (EKVX NSCLC): > 100 µM
GI50 (HOP-62 NSCLC): 10.6 µM
TGI (HOP-62 NSCLC): 36 µM
GI50 (SK-OV-3 ovarian): 57.1 µM
TGI (SK-OV-3 ovarian): > 100 µM
GI50 (OVCAR-8 ovarian): 19 µM
TGI (OVCAR-8 ovarian): > 100 µM
GI50 (HS 578T breast): 27 µM
TGI (HS 578T breast): > 100 µM
GI50 (SF-539 CNS): 21.5 µM
TGI (SF-539 CNS): 68.4 µM
GI50 (UACC-257 melanoma): 21 µM
TGI (UACC-257 melanoma): 53.4 µM

Oc1ccccc1/C=N/Nc1ccc2ccccc2n1
GI50 (HOP-62 NSCLC): 7.09 µM
TGI (HOP-62 NSCLC): 44.7 µM
GI50 (SK-OV-3 ovarian): 9.69 µM
TGI (SK-OV-3 ovarian): > 100 µM
GI50 (OVCAR-8 ovarian): 4.23 µM
TGI (OVCAR-8 ovarian): 59.1 µM
GI50 (HS 578T breast): 6.87 µM
TGI (HS 578T breast): 76.3 µM
GI50 (SF-539 CNS): 3.5 µM
TGI (SF-539 CNS): 59.4 µM
GI50 (UACC-257 melanoma): 3.14 µM
TGI (UACC-257 melanoma): 9.57 µM
GI50 (MOLT-4 leukemia): 2.6 µM
TGI (MOLT-4 leukemia): > 100 µM

CN1CCN(CC#Cc2cccc(C(=O)c3cnn(-c4ccc(F)cc4)c3N)c2)CC1
GI50 (HOP-62 NSCLC): > 25 µM
TGI (HOP-62 NSCLC): > 25 µM
GI50 (SK-OV-3 ovarian): > 25 µM
TGI (SK-OV-3 ovarian): > 25 µM
GI50 (OVCAR-8 ovarian): > 25 µM
TGI (OVCAR-8 ovarian): > 25 µM
GI50 (HS 578T breast): > 25 µM
TGI (HS 578T breast): > 25 µM
GI50 (SF-539 CNS): > 25 µM
TGI (SF-539 CNS): > 25 µM
GI50 (UACC-257 melanoma): > 25 µM
TGI (UACC-257 melanoma): > 25 µM
GI50 (MOLT-4 leukemia): > 25 µM
TGI (MOLT-4 leukemia): > 25 µM

N#Cc1c(-c2cccs2)c2c(=S)[nH]c(=S)[nH]c2[nH]c1=S
GI50 (EKVX NSCLC): 20 µM
TGI (EKVX NSCLC): 60.8 µM
GI50 (HOP-62 NSCLC): > 100 µM
TGI (HOP-62 NSCLC): > 100 µM
GI50 (SK-OV-3 ovarian): 46 µM
TGI (SK-OV-3 ovarian): > 100 µM
GI50 (HS 578T breast): 53.7 µM
TGI (HS 578T breast): 90.3 µM
GI50 (SF-539 CNS): 22 µM
TGI (SF-539 CNS): 48.1 µM
GI50 (UACC-257 melanoma): 18 µM
TGI (UACC-257 melanoma): 81.3 µM
GI50 (MOLT-4 leukemia): 14.3 µM
TGI (MOLT-4 leukemia): 42.7 µM

CC(=O)OCC1OC(O[C@@H]2C[C@H]3C(C)(C)[C@H](OC(C)=O)CC[C@]3(C)[C@H]3CCC4=C([C@@H](C)C[C@@H](O)[C@H](O)C(C)(C)O)CC[C@@]4(C)[C@@]32C)C(O)C(O)C1O (some centres undefined)
GI50 (EKVX NSCLC): 16.9 µM
TGI (EKVX NSCLC): 31 µM
GI50 (HOP-62 NSCLC): 16.2 µM
TGI (HOP-62 NSCLC): 30 µM
GI50 (SK-OV-3 ovarian): 17.9 µM
TGI (SK-OV-3 ovarian): 32.1 µM
GI50 (OVCAR-8 ovarian): 15.9 µM
TGI (OVCAR-8 ovarian): 29.6 µM
GI50 (HS 578T breast): 15.2 µM
TGI (HS 578T breast): 32.8 µM
GI50 (UACC-257 melanoma): 16.3 µM
TGI (UACC-257 melanoma): 30.3 µM
GI50 (MOLT-4 leukemia): 13.3 µM
TGI (MOLT-4 leukemia): 35.3 µM

CN=C(N)N/N=C(\c1ccccc1)c1ccc(Br)cc1
GI50 (HOP-62 NSCLC): 1.15 µM
TGI (HOP-62 NSCLC): 13.3 µM
GI50 (SK-OV-3 ovarian): 0.462 µM
TGI (SK-OV-3 ovarian): 12.3 µM
GI50 (OVCAR-8 ovarian): 0.369 µM
TGI (OVCAR-8 ovarian): 5.16 µM
GI50 (HS 578T breast): 0.38 µM
TGI (HS 578T breast): 5.37 µM
GI50 (SF-539 CNS): 0.218 µM
TGI (SF-539 CNS): 0.537 µM
GI50 (UACC-257 melanoma): 0.913 µM
TGI (UACC-257 melanoma): 12.9 µM
GI50 (MOLT-4 leukemia): 0.362 µM
TGI (MOLT-4 leukemia): 7.3 µM

CCC(C)C1NC(=O)c2nc(oc2-c2ccccc2)-c2csc(n2)-c2csc(n2)-c2nc(oc2C)-c2coc(n2)CNC(=O)C(C(C)CC)NC1=O (centres undefined)
GI50 (OVCAR-8 ovarian): 0.0216 µM
TGI (OVCAR-8 ovarian): 0.182 µM
GI50 (HS 578T breast): 0.0424 µM
TGI (HS 578T breast): 0.218 µM
GI50 (SF-539 CNS): 0.111 µM
TGI (SF-539 CNS): 0.239 µM

— PubChem BioAssay (NCI)
